According to patent publication US10906905B2, “Five-membered heteroaryl ring bridged ring derivative, preparation method therefor and medical use thereof” (Jiangsu Hengrui Medicine Co., Ltd., priority 2016, dated 2021):

Columns and labels:
TGFβRI kinase ALK5 = TGFβRI kinase ALK5 (Homo sapiens (Human), UniProt P36897); assay: Inhibition of TGFβRI kinase ALK5 activity (TGFβRI kinase assay kit, ADP-Glo); assay type: biochemical; settings: ATP 50 μM; read-out: IC50 of inhibition effect on TGFβRI kinase ALK5 activity
Description: The inhibition effect of TGFβRI kinase activity in vitro was determined by the following method.
The inhibition effect of the compounds of the present invention on TGFβRI kinase ALK5 activity was determined by the following experimental method:
(§1) TGFβRI kinase assay kit (V4093, Promega) was used to assay enzyme activity. 2 μl of enzyme solution (the final concentration of enzyme in the reaction system was 2 ng/μL) formulated with reaction buffer (40 mM Tris pH 7.5, 20 mM MgCl2, 0.1 mg/ml BSA), 1 μl of a 3-fold gradient dilution of the compounds dissolved in 5% DMSO, and 2 μl of a mixed solution of ATP and TGFβRI substrate peptide (the final concentration of ATP was 50 μM, and the final concentration of substrate was 0.2 μg/μL) were added successively to a 384-well plate (4514, Corning). After reaction at 27° C. for 2.5 hours, 5 μl of ADP-Glo solution in the kit was added to each well, then the plate was placed at 27° C. for 40 minutes. 10 μl of kinase assay reagent was then added to each well, then the plate was placed at 27° C. for 30 minutes. The chemiluminescence signal values were measured with a Victor 3 (PerkinElmer) multi-function microplate reader. The IC50 values of the compounds for enzyme inhibition were calculated using Graphpad prism software based on each concentration of the compound and the corresponding signal value thereof.

[1] = Pharmacokinetics assay in rats after intragastrical administration; assay type: in vivo; settings: both sexes, Sprague-Dawley, rat, plasma, po, SD rats, 2 mg/kg; for Vd/F: read-out: Apparent distribution volume Vz/F; for AUC: read-out: Area under curve AUC; for CL/F: read-out: Clearance CLz/F; for half-life: read-out: Half-life T1/2 (converted); for Cmax: read-out: Plasma concentration Cmax; for MRT: read-out: Residence time MRT
Description: Rats were used as test animals. The drug concentration in plasma at different time points was determined by LC/MS/MS method after intragastrical administration of the compounds of Examples 1-1, 1-2, 2-1, 3-1, the compound with retention time of 6.631 minutes among Examples 9-1 and 9-2, and the compounds of Examples 33 and 39-1 to rats. The pharmacokinetic behavior of the compounds of the present invention was studied and evaluated in rats.
Compounds of Examples 1-1, 1-2, 2-1, 3-1, compound with retention time of 6.631 minutes among Examples 9-1 and 9-2, and compounds of Examples 33 and 39-1.
Twenty-eight healthy adult Sprague-Dawley (SD) rats (half male and half female) were purchased from SINO-BRITISH SIPPR/BK LAB. ANIMAL LTD., CO, with Certificate No.: SCXK (Shanghai) 2008-0016, and equally divided into 7 groups (4 rats per group).
A certain amount of the test compound was weighed, and added with 5% by volume of DMSO, 5% by volume of Tween 80, and 90% by volume of physiological saline were added to prepare a 0.2 mg/mL colorless, clear and transparent solution.
After an overnight fast, SD rats were administered intragastrically the test compounds at an administration dosage of 2.0 mg/kg and an administration volume of 10.0 mL/kg.
The rats were intragastrically administered the compounds of Examples 1-1, 1-2, 2-1, 3-1, the compound with retention time of 6.631 minutes among Examples 9-1 and 9-2, and the compounds of Examples 33 and 39-1.0.2 mL of blood was taken from the orbital sinus before administration and at 0.5, 1.0, 2.0, 4.0, 6.0, 8.0, 11.0 and 24.0 hours after administration. The samples were stored in heparinized tubes, and centrifuged for 10 minutes at 4° C. at 3,500 rpm to separate the blood plasma. The plasma samples were stored at −20° C. The rats were fed 2 hours after administration.
The content of the test compounds in the plasma of rats after intragastrical administration of the test compounds at different concentrations was determined: 25 μL of rat plasma at each time after administration was taken, added with 50 μL (100 ng/mL) of the internal standard solution of camptothecin and 175 μL of acetonitrile, shaken vertically for 5 minutes, and centrifuged for 10 minutes (4000 rpm). 3.0 μL of the supernatant was taken from the plasma samples for LC/MS/MS analysis.

[2] = system: Smad signaling pathway of TGFβRI; assay: Inhibition of Smad signaling pathway of TGFβRI (3TP-lux luciferase reporter in HepG2 cell); assay type: cell-based; settings: Homo sapiens; HepG2 cell, 3TP-lux plasmid, 18 hours; read-out: IC50 on the inhibition of Smad signaling pathway of TGFβRI
Description: The inhibition effect of the compounds of the present invention on Smad signaling pathway of TGFβRI was determined by the following in vitro test.
The inhibition effect of the compounds of the present invention on Smad signaling pathway of TGFβRI was determined by the following experimental method:
The seeding density is 2.5×10^4 cells/well. The cells were incubated overnight at 37° C., 5% CO2. Each well was replaced with fresh EMEM medium containing 10% FBS. […] The cells were further incubated for 24 hours at 37° C., 5% CO2. Each well was replaced with 90 μL of EMEM medium containing 0.5% FBS, then the cells were starved for 6 hours. The compounds were formulated as a 20 mM stock solution, which was diluted in gradient to a 400× concentration with 100% DMSO, and further 40-fold diluted with EMEM containing 0.5% FBS. The cell culture plate was taken out, then 10 μl of diluted compound or control (0.25% DMSO) was added to each well respectively. The plate was shaken gently, then incubated for 18 hours in an incubator at 37° C., 5% CO2. Finally, 100 μl of detection reagent ONE-Glo™ Luciferase Assay (E6110, Promega) was added to each well, and the plate was placed in dark at room temperature for 10 minutes. The chemiluminescence signal values were measured with a Victor 3.0 (PerkinElmer). The IC50 values of the compounds were calculated using Graphpad Prism software based on each concentration of the compound and the corresponding signal value thereof.

NIH3T3 cell = assay: Inhibition of NIH3T3 cell proliferation (CellTiter-Glo); assay type: cell-based; settings: Mus musculus, 72 hours, 0.5% FBS
Description: The inhibition effect of the compounds of the present invention on NIH3T3 cell proliferation was determined by the following in vitro test.
The inhibition effect of the compounds of the present invention on NIH3T3 cell proliferation was determined by the following experimental method:
On a 96-well white plate with transparent bottom (3903, Corning), 100 μL of NIH3T3 cell (GNM6, Cell Bank of Typical Culture Collection Committee of Chinese Academy of Sciences) was seeded in a DMEM medium containing 10% FBS in each well. The seeding density is 2000 cells/well. The cells were incubated overnight at 37° C., 5% CO2. After overnight incubation, each well was replaced with 90 μL of DMEM medium containing 0.5% FBS. 10 μl of a 3-fold gradient dilution of the compounds with DMEM medium containing 0.5% FBS was then added, and the plate was incubated for 72 hours in a cell incubator at 37° C., 5% CO2. Finally, 50 μL of CellTiter-Glo (G7573, Promega) was added to each well. After incubation for 10 minutes at room temperature, the chemiluminescence signal values were measured with a Victor 3 microplate reader (PerkinElmer). The IC50 values of the compounds were calculated using Graphpad Prism software based on each concentration of the compound and the corresponding signal value thereof.

p38α kinase = p38α kinase (Homo sapiens (Human), UniProt Q16539); assay: Inhibition of p38α kinase activity (p38α kinase assay kit, ADP-Glo); assay type: biochemical; settings: ATP 50 μM; read-out: IC50 of inhibition effect on p38α kinase activity
Description: The inhibition of p38α kinase activity in vitro was determined by the following method.
The inhibition effect of the compounds of the present invention on p38a kinase activity was determined by the following experimental method:
as §1, with “p38α kinase” for “TGFβRI kinase”, “kit (V9591,” for “kit (V4093,”, “was 0.5” for “was 2”, “and p38” for “and TGFβRI”, “compounds on” for “compounds for”

Chain of TGFβRI kinase ALK5 (P36897 34-503): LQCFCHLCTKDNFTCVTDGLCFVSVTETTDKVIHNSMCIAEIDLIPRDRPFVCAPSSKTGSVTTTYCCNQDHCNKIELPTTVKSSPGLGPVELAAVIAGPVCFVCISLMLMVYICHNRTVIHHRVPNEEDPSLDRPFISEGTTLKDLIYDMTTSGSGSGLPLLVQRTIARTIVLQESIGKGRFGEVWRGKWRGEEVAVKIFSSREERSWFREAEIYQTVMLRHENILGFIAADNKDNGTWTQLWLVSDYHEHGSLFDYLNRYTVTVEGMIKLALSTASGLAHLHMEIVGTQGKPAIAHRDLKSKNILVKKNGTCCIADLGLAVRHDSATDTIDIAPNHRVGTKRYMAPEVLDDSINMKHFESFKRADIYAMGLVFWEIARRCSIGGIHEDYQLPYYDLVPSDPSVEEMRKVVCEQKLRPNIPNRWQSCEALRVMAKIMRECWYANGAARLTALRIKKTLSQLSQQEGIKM
Chain of p38α kinase (Q16539 whole entry): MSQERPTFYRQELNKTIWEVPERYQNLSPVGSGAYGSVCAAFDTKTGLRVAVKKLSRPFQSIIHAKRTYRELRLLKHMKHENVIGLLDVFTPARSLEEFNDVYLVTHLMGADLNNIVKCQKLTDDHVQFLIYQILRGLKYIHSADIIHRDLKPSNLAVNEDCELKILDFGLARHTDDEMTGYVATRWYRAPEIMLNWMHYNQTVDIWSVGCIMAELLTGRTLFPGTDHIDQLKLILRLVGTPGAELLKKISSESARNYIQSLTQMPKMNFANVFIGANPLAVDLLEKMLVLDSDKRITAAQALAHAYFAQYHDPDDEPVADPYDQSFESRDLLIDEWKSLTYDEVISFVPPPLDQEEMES

SMILES | IC50 (TGFβRI kinase ALK5) [nM] | Vd/F [1] [L/kg] | AUC [1] [ng·h/mL] | CL/F [1] [mL/min/kg] | half-life [1] [h] | Cmax [1] [ng/mL] | MRT [1] [h] | IC50 [2] [nM] | IC50 (NIH3T3 cell) [nM] | IC50 (p38α kinase) [nM]
Cc1cccc(-c2nc3n(c2-c2ccc4nccc(C(N)=O)c4c2)[C@@H]2CC[C@H]3C2)n1 [Example 1-2, 6-((5R,8S)-2-(6-Methylpyridin-2-yl)-5,6,7,8-tetrahydro-5,8-methanoimidazo[1,2-a]pyridin-3-yl)quinoline-4-carboxamide] | 16 | 14.6 ± 7.63 | 475 ± 267 | 89.2 ± 47.4 | 1.92 ± 0.14 | 146 ± 81 | 3.53 ± 0.93 | 15 | – | –
Cc1cccc(-c2nc3n(c2-c2cc4cnccc4s2)C2CCC3C2)n1 (stereo not drawn) [Example 10, 2-(2-(6-Methylpyridin-2-yl)-5,6,7,8-tetrahydro-5,8-methanoimidazo[1,2-a]pyridin-3-yl) thieno[3,2-c]pyridine] | 25 | – | – | – | – | – | – | 23 | 41 | –
NC(=O)c1ccnc2ccc(-c3c(-c4ccccn4)nc4n3[C@H]3CC[C@@H]4C3)cc12 [Example 45-1, 6-((5S,8R)-2-(Pyridin-2-yl)-5,6,7,8-tetrahydro-5,8-methanoimidazo[1,2-a]pyridin-3-yl) quinoline-4-carboxamide] | 29 | – | – | – | – | – | – | 32 | 51 | –
Cc1cccc(-c2nc3n(c2-c2ccc4nccnc4c2)C2CCC3C2)n1 (stereo not drawn) [Example 6, 2-(6-Methylpyridin-2-yl)-3-(quinoxalin-6-yl)-5,6,7,8-tetrahydro-5,8-methanoimidazo[1,2-a]pyridine] | 26 | – | – | – | – | – | – | 21 | 22 | –
Cc1cccc(-c2nn3c(c2-c2ccnc(-c4ccc(S(C)(=O)=O)cc4)c2)C2CCC3CC2)n1 [Example 33, 2-(6-Methylpyridin-2-yl)-3-(2-(4-(methylsulfonyl)phenyl)pyridin-4-yl)-4,5,6,7-tetrahydro-4,7-ethanopyrazolo[1,5-a]pyridine] | 34 | 16.4 ± 10.7 | 228 ± 159 | 193 ± 95 | 0.973 ± 0.3 | 178 ± 113 | 1.2 ± 0.35 | 87 | – | 563
Cc1cccc(-c2nc3n(c2-c2ccc4nccc(C(N)=O)c4c2)C2CCC3C2)n1 (stereo not drawn) [Example 1, 6-(2-(6-Methylpyridin-2-yl)-5,6,7,8-tetrahydro-5,8-methanoimidazo[1,2-a]pyridin-3-yl) quinoline-4-carboxamide] | 14 | – | – | – | – | – | – | 57 | 80 | –
Cc1cccc(-c2nc3n(c2-c2ccc4ncc(OCCO)nc4c2)C2CCC3C2)n1 (stereo not drawn) [Example 7, 2-((7-(2-(6-Methylpyridin-2-yl)-5,6,7,8-tetrahydro-5,8-methanoimidazo[1,2-a]pyridin-3-yl)quinoxalin-2-yl)oxy)ethanol] | 20 | – | – | – | – | – | – | 6 | 23 | –
Cc1cccc(-c2nc3n(c2-c2ccnc(-c4cnn(C)c4)c2)C2CCC3C2)n1 (stereo not drawn) [Example 12, 3-(2-(1-Methyl-1H-pyrazol-4-yl)pyridin-4-yl)-2-(6-methylpyridin-2-yl)-5,6,7,8-tetrahydro-5,8-methanoimidazo[1,2-a]pyridine] | 9 | – | – | – | – | – | – | 33 | 13 | 454
Cc1cccc(-c2nc3n(c2-c2ccc4ncnn4c2)C2CCC3C2)n1 (stereo not drawn) [Example 11, 3-([1,2,4]Triazolo[1,5-a]pyridin-6-yl)-2-(6-methylpyridin-2-yl)-5,6,7,8-tetrahydro-5,8-methanoimidazo[1,2-a]pyridine] | 16 | – | – | – | – | – | – | 26 | 37 | –
NC(=O)c1nnc2ccc(-c3c(-c4ccc(F)cn4)nc4n3C3CCC4C3)cn12 (stereo not drawn) [Example 9, 6-(2-(5-Fluoropyridin-2-yl)-5,6,7,8-tetrahydro-5,8-methanoimidazo[1,2-a]pyridin-3-yl)-[1,2,4]triazolo[4,3-a]pyridine-3-carboxamide] | 43 | – | – | – | – | – | – | 82 | 91 | –
Cc1cccc(-c2nn3c(c2-c2ccc4ncnn4c2)C2CCC3CC2)n1 [Example 38, 3-([1,2,4]Triazolo[1,5-a]pyridin-6-yl)-2-(6-methylpyridin-2-yl)-4,5,6,7-tetrahydro-4,7-ethanopyrazolo[1,5-a]pyridine] | 9 | – | – | – | – | – | – | 11 | 33 | –
